According to patent publication US7531320B2, “Modulation of β-catenin/TCF-activated transcription” (priority 2003, dated 2009):

Tests used:
[1] = tested on: nuclear β-catenin in SW480 cells; test: β-catenin immunofluorescence and western blot localization in SW480 cells; format: cell-based, human; conditions: 25 μM, 24 hours
Protocol: FIG. 4. COMPOUND 1 decreases nuclear β-catenin • A. β-catenin immunofluorescence microscopy. Log phase SW480 (left) and HCT116 (right) cells were fixed and stained with either anti-β-catenin red (upper panel, A) or anti-CBP (upper panel, B) green. The center panel represents the superimposed β-catenin and CBP in SW480 (left) and HCT116 (right) cells. […] 25 μg of total protein from the cell extracts of SW480 cells with or without 24 hr treatment of COMPOUND1 was used for detection of cytosolic and nuclear β-catenin.
Immunofluorescence was used to examine the localization of CBP and β-catenin in SW480 and HCT116 cells treated with COMPOUND 1 (25 μM) or control (0.5% DMSO). Cells at log phase were seeded and after 24 hours, the cells were treated with COMPOUND 1 or control. 24 hours post treatment, cells were fixed. The coverslips were incubated with antibodies raised against CBP (A-22) (Santa Cruz Biotechnology) and β-catenin (Transduction Laboratories), respectively. The slides were examined using a Nikon PCM 2000 Laser Scanning Confocal Microscope after the secondary antibodies conjugated to either FITC or TRITC (Jackson ImmunoResearch, Westgrove, Pa.) were applied.
The subcellular distribution of β-catenin and CBP was examined in order to determine whether the localization of either was affected by COMPOUND 1. […]

[2] = tested on: fra-1; test: Real Time RT-PCR in SW480 cells, fra-1; format: cell-based, human; conditions: 25 μM; for ΔCT fra-1: relative to β-actin
Protocol: The RNeasy Midi Kit (Qiagen) was used for RNA extraction and Real Time RT-PCR was performed according to the protocol provided with the SYBR Green PCR Master Mix Kit (Perkin Elmer Biosystems, Shelton, Conn.). The primers used for cyclin D1, axin2, hnkd, c-myc, c-jun, and fra-1 amplifications were: cyclin D1 forward primer:5′-[…]-CCTGCTG-3′ (SEQ ID NO: 32) reverse primer: 5′-[…]-3′ (SEQ ID NO: 33) leading to a product size of approximately 300 bp; axin2 forward primer: 5′-[…] GGAAA-CT-3′ (SEQ ID NO: 34) and reverse primer: 5′-[…]-GAGA-3′ (SEQ ID NO: 35); hnkd forward primer: 5′-[…] TTGCGT-3′ (SEQ ID NO: 36) and the reverse primer: 5′-[…] ACGT-3′ (SEQ ID NO: 37); c-myc forward primer: 5′-GAA-[…] CTGC-3′ (SEQ ID NO: 38) and reverse primer: 5′-[…]-G-3′ (SEQ ID NO: 39); c-jun forward primer: 5′-[…]-3′ (SEQ ID NO: 40) and reverse primer: 5′-[…]-3′ (SEQ ID NO: 41); fra-1 forward primer: 5′-ACC-[…]-[…]-3′ (SEQ ID NO: 42) and reverse primer: 5′-[…]-TT-3′ (SEQ ID NO: 43). β-actin was used for normalization. […]
1 μg of mRNA, for each time point, was subjected to Real Time RT-PCR. Expression level of endogenous cyclin D1, c-myc, fibronectin, hnkd, axin2, c-jun, and BMP-4 were measured relative to β-actin. Quantitation of The ΔCycle of Threshold (CT) values was determined by subtracting the average values of each set by the corresponding average values obtained for β-actin. […]
The cyclin D1 gene is inappropriately expressed in many different tumor types, and is known to be a direct target of the Wnt/β-catenin pathway (Shtutman et al., “The cyclin D1 gene is a target of the beta-catenin/LEF-1 pathway,” Proc. Natl. Acad. Sci. USA 96:5522-27 (1999); Tetsu et al., “Beta-catenin regulates expression of cyclin D1 in colon carcinoma cells,” Nature 398:422-26 (1999)). […] Expression level of endogenous cyclin D1, c-myc, fibronectin, hnkd, axin2, c-jun, and BMP-4 were measured relative to β-actin. Quantitation of The ΔCycle of Threshold (CT) values was determined by subtracting the average values of each set by the corresponding average values obtained for β-actin. […]

**Q.** For `O=C1C(Cc2ccc(O)cc2)N2C(=O)CCN(C(=O)NCc3ccccc3)C2CN1Cc1cccc2ccccc12` (stereo not shown) [COMPOUND 1], which “Subcellular distribution of β-catenin” value [1] is on record?
**A.** caused translocation of β-catenin to the cytoplasm

**Q.** What about the “mRNA fra-1 (direction)” value [2] of the same compound?
**A.** ↑

**Q.** What about the “ΔCT fra-1” value ([2]; 4 hours) of the same compound?
**A.** −1.0

**Q.** And the “ΔCT fra-1” value ([2]; 8 hours)?
**A.** −1.4
